Reference: patent US9169279B2, “Crystallization method and bioavailability” (THAR PHARMACEUTICALS, INC., priority 2009, dated 2015)
Like-named read-outs stand apart in the source and are kept apart here.

Columns and labels:
[1] = Rat PK study: zoledronic acid in plasma after IV, oral gavage or intraduodenal dosing (LC/MS/MS); type: in vivo; details: male, Sprague-Dawley, read-out: Average plasma concentration of 3 rats
Description: (§1) This can be attributed to the fact that both animals have historically been used in the safety evaluation and PK screening studies and are recommended by appropriate regulatory agencies. […] Additional tests included ID administration in rats and administration of enteric coated capsules in dogs.
(§2) USA. Some animals have surgical catheters (jugular vein and intraduodenum) were implanted to the animals prior to the studies. Beagle dogs from Marshall Farms, N.Y., USA, weighing from (9-12 kg) were used in the studies presented herein. Surgical catheters (jugular vein) were implanted prior to the studies.
The dose of each rat was calculated on a per rat basis (not on an average weight of all the rats in the lot). • ii. Oral gavage administration: solid suspensions were administered. The dose of each rat was calculated on a per rat basis (not on an average weight of all the rats in the lot). […] Duodenal cannula administration: solid suspensions were administered. The dose of each rat was calculated on a per rat basis (not on an average weight of all the rats in the lot).
Two major groups of animals were selected for the study. • Group 1 consists of rat studies. […] Details of Group 1 Rat Dosing
Plasma was collected after centrifugation at 13,000 rpm for 5 min at 4° C. and immediately frozen and stored at −60 to −80° C. until analysis.

[2] = Dog PK study: zoledronic acid in serum after IV or oral capsule dosing, enteric or non-enteric coated, with or without excess coformer (LC/MS/MS); type: in vivo, Beagle dogs; details: beagle
Description: as §1, §2
The dose volume of each dog was adjusted based upon the average weight of the dog. • ii. […]
Blood samples were placed without the use of an anticoagulant and allowed to sit at room temperature for approximately 30 minutes. Samples were then centrifuged at a temperature of 4° C., at a speed of 13,000 rpm, for 5 minutes. Serum was collected and split into two aliquots and stored frozen (−80° C.) until analysis.
In this study, capsules of particulate materials (zoledronic:DL-lysine:water complex and excess pure DL-lysine).

[3] = other: intraduodenal (ID, duodenal cannula), 5 mg/kg

In the case of `O=P(O)(O)C(O)(Cn1ccnc1)P(=O)(O)O` [Zoledronic acid, (1-hydroxy-2-imidazol-1-yl-1-phosphono-ethyl)phosphonic acid], the concentration at 0.083333 hour ([1]; iv, 0.5 mg/kg) is reported as 3250 ng/mL, the concentration at 0.25 hour ([1]; iv, 0.5 mg/kg) is reported as 1950 ng/mL and the concentration at 0.5 hour ([1]; iv, 0.5 mg/kg) is reported as 1130 ng/mL. The concentration at 1 hour ([1]; iv, 0.5 mg/kg) was 404 ng/mL, the concentration at 2 hour ([1]; iv, 0.5 mg/kg) was 113 ng/mL and the concentration at 4 hour ([1]; iv, 0.5 mg/kg) was 30.5 ng/mL. It also gave a concentration at 8 hour ([1]; iv, 0.5 mg/kg) of 10.7 ng/mL, a concentration at 24 hour ([1]; iv, 0.5 mg/kg) of 2.98 ng/mL and a concentration at 0.25 hour [1, 3] of 146 ng/mL. The concentration at 0.5 hour [1, 3] was 110 ng/mL, the concentration at 1 hour [1, 3] was 47.4 ng/mL and the concentration at 2 hour [1, 3] was 12.9 ng/mL. It also gave a concentration at 4 hour [1, 3] of 3.85 ng/mL, a concentration at 8 hour [1, 3] of 0.97 ng/mL and a concentration at 24 hour [1, 3] of 0 ng/mL. It also gave a concentration at 0.25 hour ([1]; po, 5 mg/kg) of 330 ng/mL, a concentration at 0.5 hour ([1]; po, 5 mg/kg) of 267 ng/mL and a concentration at 1 hour ([1]; po, 5 mg/kg) of 139 ng/mL. It also gave a concentration at 2 hour ([1]; po, 5 mg/kg) of 47.7 ng/mL, a concentration at 4 hour ([1]; po, 5 mg/kg) of 11.8 ng/mL and a concentration at 8 hour ([1]; po, 5 mg/kg) of 2 ng/mL. For the same molecule, the concentration at 24 hour ([1]; po, 5 mg/kg) was 0 ng/mL, the bioavailability ([2]; Leg 37: 63.1 mg Zoledronic, DL-lysine, and water complex with 1965.7 mg DL-lysine monohydrate, PO gelatin capsules) was > 8% and the concentration at 0 h ([2]; intravenous, 0.12 mg/kg, Leg 18, 15 min IV infusion 0.12 mg/kg, saline solution, Time 0 hour (pre-dose), read-out: Average serum concentration of 5 dogs) was 0 ng/mL. The concentration at 5 min ([2]; intravenous, 0.12 mg/kg, Leg 18, 15 min IV infusion 0.12 mg/kg, saline solution, Time 0.0833 hour, read-out: Average serum concentration of 5 dogs) was 309 ng/mL, the concentration at 10 min ([2]; intravenous, 0.12 mg/kg, Leg 18, 15 min IV infusion 0.12 mg/kg, saline solution, Time 0.1667 hour, read-out: Average serum concentration of 5 dogs) was 525 ng/mL and the concentration at 0.25 h ([2]; intravenous, 0.12 mg/kg, Leg 18, 15 min IV infusion 0.12 mg/kg, saline solution, Time 0.25 hour, read-out: Average serum concentration of 5 dogs) was 717 ng/mL. The concentration at 25 min ([2]; intravenous, 0.12 mg/kg, Leg 18, 15 min IV infusion 0.12 mg/kg, saline solution, Time 0.4167 hour, read-out: Average serum concentration of 5 dogs) was 392 ng/mL, the concentration at 0.5 h ([2]; intravenous, 0.12 mg/kg, Leg 18, 15 min IV infusion 0.12 mg/kg, saline solution, Time 0.5 hour, read-out: Average serum concentration of 5 dogs) was 323 ng/mL and the concentration at 0.75 h ([2]; intravenous, 0.12 mg/kg, Leg 18, 15 min IV infusion 0.12 mg/kg, saline solution, Time 0.75 hour, read-out: Average serum concentration of 5 dogs) was 202 ng/mL. The concentration at 1 h ([2]; intravenous, 0.12 mg/kg, Leg 18, 15 min IV infusion 0.12 mg/kg, saline solution, Time 1 hour, read-out: Average serum concentration of 5 dogs) was 133 ng/mL, the concentration at 1.25 h ([2]; intravenous, 0.12 mg/kg, Leg 18, 15 min IV infusion 0.12 mg/kg, saline solution, Time 1.25 hour, read-out: Average serum concentration of 5 dogs) was 93.2 ng/mL and the concentration at 1.5 h ([2]; intravenous, 0.12 mg/kg, Leg 18, 15 min IV infusion 0.12 mg/kg, saline solution, Time 1.5 hour, read-out: Average serum concentration of 5 dogs) was 69.1 ng/mL. It also gave a concentration at 2 h ([2]; intravenous, 0.12 mg/kg, Leg 18, 15 min IV infusion 0.12 mg/kg, saline solution, Time 2 hour, read-out: Average serum concentration of 5 dogs) of 38.4 ng/mL, a concentration at 4 h ([2]; intravenous, 0.12 mg/kg, Leg 18, 15 min IV infusion 0.12 mg/kg, saline solution, Time 4 hour, read-out: Average serum concentration of 5 dogs) of 9.14 ng/mL and a concentration at 8 h ([2]; intravenous, 0.12 mg/kg, Leg 18, 15 min IV infusion 0.12 mg/kg, saline solution, Time 8 hour, read-out: Average serum concentration of 5 dogs) of 3.24 ng/mL. It also gave a concentration at 24 h ([2]; intravenous, 0.12 mg/kg, Leg 18, 15 min IV infusion 0.12 mg/kg, saline solution, Time 24 hour, read-out: Average serum concentration of 5 dogs) of 1.21 ng/mL, a concentration at 0.0333 hour ([2]; iv, 0.05 mg/kg, zoledronic acid in dog serum, Leg 1, IV 0.05 mg/kg, saline solution, Time 0.0333 hour, read-out: Average serum concentration of 5 dogs) of 413 ng/mL and a concentration at 0.0833 hour ([2]; iv, 0.05 mg/kg, zoledronic acid in dog serum, Leg 1, IV 0.05 mg/kg, saline solution, Time 0.0833 hour, read-out: Average serum concentration of 5 dogs) of 312 ng/mL. The concentration at 0.1667 hour ([2]; iv, 0.05 mg/kg, zoledronic acid in dog serum, Leg 1, IV 0.05 mg/kg, saline solution, Time 0.1667 hour, read-out: Average serum concentration of 5 dogs) was 229 ng/mL, the concentration at 0.25 hour ([2]; iv, 0.05 mg/kg, zoledronic acid in dog serum, Leg 1, IV 0.05 mg/kg, saline solution, Time 0.25 hour, read-out: Average serum concentration of 5 dogs) was 179 ng/mL and the concentration at 0.75 hour ([2]; iv, 0.05 mg/kg, zoledronic acid in dog serum, Leg 1, IV 0.05 mg/kg, saline solution, Time 0.75 hour, read-out: Average serum concentration of 5 dogs) was 75.9 ng/mL. For the same molecule, the concentration at 1 hour ([2]; iv, 0.05 mg/kg, zoledronic acid in dog serum, Leg 1, IV 0.05 mg/kg, saline solution, Time 1 hour, read-out: Average serum concentration of 5 dogs) was 56.1 ng/mL, the concentration at 1.5 hour ([2]; iv, 0.05 mg/kg, zoledronic acid in dog serum, Leg 1, IV 0.05 mg/kg, saline solution, Time 1.5 hour, read-out: Average serum concentration of 5 dogs) was 30.4 ng/mL and the concentration at 2 hour ([2]; iv, 0.05 mg/kg, zoledronic acid in dog serum, Leg 1, IV 0.05 mg/kg, saline solution, Time 2 hour, read-out: Average serum concentration of 5 dogs) was 17.6 ng/mL. It also gave a concentration at 4 hour ([2]; iv, 0.05 mg/kg, zoledronic acid in dog serum, Leg 1, IV 0.05 mg/kg, saline solution, Time 4 hour, read-out: Average serum concentration of 5 dogs) of 4.29 ng/mL, a concentration at 8 hour ([2]; iv, 0.05 mg/kg, zoledronic acid in dog serum, Leg 1, IV 0.05 mg/kg, saline solution, Time 8 hour, read-out: Average serum concentration of 5 dogs) of 1.13 ng/mL and a concentration at 24 hour ([2]; iv, 0.05 mg/kg, zoledronic acid in dog serum, Leg 1, IV 0.05 mg/kg, saline solution, Time 24 hour, read-out: Average serum concentration of 5 dogs) of 0 ng/mL. It also gave a concentration at 48 hour ([2]; iv, 0.05 mg/kg, zoledronic acid in dog serum, Leg 1, IV 0.05 mg/kg, saline solution, Time 48 hour, read-out: Average serum concentration of 5 dogs) of 0 ng/mL, a concentration at 0 h ([2]; iv, 0.12 mg/kg, Leg 38, 0.12 mg/kg IV, saline solution, 0 h, read-out: Average serum concentration of 4 dogs) of 0 ng/mL and a concentration at 5 min ([2]; iv, 0.12 mg/kg, Leg 38, 0.12 mg/kg IV, saline solution, 5 min, read-out: Average serum concentration of 4 dogs) of 288 ng/mL. It also gave a concentration at 10 min ([2]; iv, 0.12 mg/kg, Leg 38, 0.12 mg/kg IV, saline solution, 10 min, read-out: Average serum concentration of 4 dogs) of 542 ng/mL, a concentration at 0.25 h ([2]; iv, 0.12 mg/kg, Leg 38, 0.12 mg/kg IV, saline solution, 0.25 h, read-out: Average serum concentration of 4 dogs) of 711 ng/mL and a concentration at 20 min ([2]; iv, 0.12 mg/kg, Leg 38, 0.12 mg/kg IV, saline solution, 20 min, read-out: Average serum concentration of 4 dogs) of 529 ng/mL. The concentration at 25 min ([2]; iv, 0.12 mg/kg, Leg 38, 0.12 mg/kg IV, saline solution, 25 min, read-out: Average serum concentration of 4 dogs) was 406 ng/mL, the concentration at 0.5 h ([2]; iv, 0.12 mg/kg, Leg 38, 0.12 mg/kg IV, saline solution, 0.5 h, read-out: Average serum concentration of 4 dogs) was 358 ng/mL and the concentration at 0.75 h ([2]; iv, 0.12 mg/kg, Leg 38, 0.12 mg/kg IV, saline solution, 0.75 h, read-out: Average serum concentration of 4 dogs) was 240 ng/mL.
